Patent US7163920B2, “Peptide with osteogenic activity” (Ethicon, Inc., priority 2003, dated 2007)

Assays:
[1] = Elman's test (DTNB) for free sulfhydryl groups, with UV measurement; type: physicochemical; details: for Free Sulfhydryl Group Content, Optical density At 412 nM: 0.5 mM peptide in Elman's reaction buffer pH 8.0
Protocol: (§1) The formation of inter- or intra-chain disulfide bonds was determined by Elman's test and a reverse phase HPLC method. The peptide represented by SEQ. ID NO: 1 was dissolved in 50 mM sodium acetate, pH 5.2, containing 1 mM EDTA to a stock solution of 10 mM. The stock solution was further diluted with either 50 mM sodium acetate buffer or Elman's reaction buffer ([…], pH 8.0, containing 1 mM EDTA) to a final concentration of 0.5 mM. Samples prepared with sodium acetate buffer were kept at 5° C. for HPLC analysis later.
The reagent used in Elman's test is 5,5′-dithio-bis-(2-nitrobenzoic acid), also know as DTNB. […] Sulfhydryl groups can be quantitated in a sample by comparison to a standard curve prepared with know concentrations of sulfhydryl-containing compound such as cysteine. The measurement of free sulfhydryl group was performed when the peptide was freshly prepared and after 24 hours incubation at 37° C. The incubation step was designed to mimic the cell culture conditions and to create conditions for inter- or intra-chain disulfide bond formations. To examine the integrity of the peptide after incubation, a UV measurement was performed when the peptide (SEQ. ID NO: 1) was freshly prepared and after 24 hours incubation.

human fibroblasts = assay: 3H-thymidine incorporation, proliferative response of human fibroblasts; type: cell-based; details: for 3H-Thymidine Incorporation Into Fibroblasts: Table 4 (human fibroblasts per Example 4), 48 hours
Protocol: (§2) Primary human osteoblasts were trypsinized and cell counts determined. Cells were resuspended at a concentration of 0.5×10^5 cells/ml in growth medium [Dulbeccos Modified Eagles Medium (DMEM) 10% Fetal Bovine Serum (FBS), 100 units Penicillin and 50 μg/ml Streptomycin]. A 100 μl aliquot of cells was added to each well in a 96 well dish. Cells were allowed to adhere for 24 hours and then refed with DMEM containing 0.5% FBS for 24 hours. Thereafter, several concentrations (10, 100, 500 μg/ml final concentration) of peptide in DMEM containing 0.5% FBS were added to different wells in quadruplicate. These plates were incubated in a cell culture incubator at 37° C. 5% CO2 for 48 hours. Subsequently, 0.1 μCi of ^3H-thymidine was added to each well, and incubated at 37° C. for an additional 3 hours prior to harvest. Cells were lysed and the lysate was placed in scintillation fluid and the amount of thymidine incorporated was determined by beta counting (in Counts Per Minute, or CPM).
(§3) The effect of the peptide […] (SEQ. ID NO: 1) on stimulation of human fibroblast proliferation was assessed by thymidine incorporation as described above. The experiments were set up as detailed in Example 1. Following serum starvation, cells were treated with the peptide at concentration of 10, 100, and 500 μg/ml of peptide in DMEM containing 0.5% FBS. These plates were incubated at 37° C. in 5% CO2 for 48 hours and processed for analysis as described in Example 1.

[2] = system: Primary human osteoblasts; assay: 3H-thymidine incorporation, proliferative response of human osteoblasts; type: cell-based
Protocol: as §2
To help determine a maximal stimulation of cell proliferation, the study was repeated with concentrations of 10, 50, 100, and 200 μg/ml final concentration) of the peptide represented by SEQ. ID NO: 1 in DMEM containing 0.5% FBS.
The experiments were set up as described for Example 1, with proliferation assessed by measurement of thymidine incorporation into newly synthesized DNA. […] These plates were incubated at 37° C. in 5% CO2 for 48 hours and processed for analysis as mentioned in Example 1.

human chondrocytes = assay: 3H-thymidine incorporation, proliferative response of human chondrocytes; type: cell-based; details: for 3H-Thymidine Incorporation Into Chondrocytes: Table 3, 48 hours
Protocol: as §2
as §3, with “chondrocyte” for “fibroblast”

[3] = Reverse phase HPLC for peptide integrity after disulfide bond formation; type: physicochemical
Protocol: as §1
To determine the integrity of the peptide of SEQ. ID NO: 1 after disulfide bond formations, samples in sodium acetate buffer (1G1) and in Elman's reaction buffer (1G2) were subjected to reverse phase HPLC after a 24 hour incubation at 37° C. In particular, a 0–80% acetonitrile gradient in 0.1% TFA was used over 15 minutes at a flow rate of 2 ml/min on a Vydac C-18 column. Detection was at 214 nm.

[4] = after 24 hrs incubation at 37° C.

In the case of “CGGGRWCG (synthesized primer) [ID NO: 1, synthesized by Invitrogen Corporation]”, the “free sulfhydryl group content after incubation” value ([1]; after 24 hour incubation at 37° C., 412 nM) is reported as “reduced significantly”, the “Optical density At 280 nM (UV measurement, integrity of the peptide)” value [1, 4] is reported as 2.037 and the “Free Sulfhydryl Group Content, Optical density At 412 nM” value [1, 4] is reported as 0.011. The “change of absorbance at 280 nM” value ([1]; fresh vs 24 hour old samples) was “did not change”, the “Optical density At 280 nM (UV measurement, integrity of the peptide)” value ([1]; freshly prepared) was 2.127 and the “Free Sulfhydryl Group Content, Optical density At 412 nM” value ([1]; freshly prepared) was 0.71. The “stimulation of proliferation of human fibroblasts” value (human fibroblasts; 10, 100, and 500 μg/ml) was “did not stimulate proliferation”, the “3H-Thymidine Incorporation Into Fibroblasts” value (human fibroblasts; peptide 10 μg/ml) was 1281 +/− 86 CPM and the “3H-Thymidine Incorporation Into Fibroblasts” value (human fibroblasts; peptide 100 μg/ml) was 1103 +/− 76 CPM. For the same sequence, the “3H-Thymidine Incorporation Into Fibroblasts” value (human fibroblasts; peptide 500 μg/m1) was 1088 +/− 64 CPM, the “3H-Thymidine Incorporation Into Osteoblasts” value ([2]; Table 1A, peptide 0 μg/ml, DMEM 0.5% FBS, 48 hours) was 591 +/− 39 CPM and the “stimulation of proliferation as compared to controls treated with 0.1% BSA” value ([2]; Table 1A, peptide 100 μg/ml) was 2.5 fold. For the same sequence, the “3H-Thymidine Incorporation Into Osteoblasts” value ([2]; Table 1A, peptide 100 μg/ml, DMEM 0.5% FBS, 48 hours) was 1228 +/− 157 CPM, the “stimulation of osteoblast proliferation” value ([2]; Table 1A, peptide 500 μg/ml) was “no statistical stimulation” and the “3H-Thymidine Incorporation Into Osteoblasts” value ([2]; Table 1A, peptide 500 μg/ml, DMEM 0.5% FBS, 48 hours) was 629 +/− 46 CPM. For the same sequence, the “3H-Thymidine Incorporation Into Osteoblasts” value ([2]; Table 1B (repeat study), peptide 10 μg/ml) was 807 +/− 45 CPM, the “3H-Thymidine Incorporation Into Osteoblasts” value ([2]; Table 1B (repeat study), peptide 50 μg/ml) was 948 +/− 62 CPM and the “3H-Thymidine Incorporation Into Osteoblasts” value ([2]; Table 1B (repeat study), peptide 100 μg/ml) was 1150 +/− 37 CPM. The “3H-Thymidine Incorporation Into Osteoblasts” value ([2]; Table 1B (repeat study), peptide 200 μg/ml) was 1565 +/− 98 CPM, the “concentration of maximal stimulation of proliferation (dose dependant)” value ([2]; Table 1B, 10-200 μg/ml tested) was 200 µg/mL and the “stimulation of proliferation relative to cells cultured in the presence of serum” value ([2]; Table 1B, maximal stimulation at 200 μg/ml vs 10% FBS) was “approximately 75%”. The “3H-Thymidine Incorporation Into Osteoblasts” value ([2]; Table 2 (Example 2), peptide 200 ug/ml) was 3446 +/− 333 CPM, the “stimulation of osteoblast proliferation (fold, words)” value ([2]; Table 2, peptide 200 ug/ml) was “two fold” and the “stimulation of proliferation of human chondrocytes” value (human chondrocytes; 10, 100, and 500 μg/ml) was “did not stimulate proliferation”. The “3H-Thymidine Incorporation Into Chondrocytes” value (human chondrocytes; peptide 10 μg/ml) was 803 +/− 96 CPM, the “3H-Thymidine Incorporation Into Chondrocytes” value (human chondrocytes; peptide 100 μg/ml) was 726 +/− 88 CPM and the “3H-Thymidine Incorporation Into Chondrocytes” value (human chondrocytes; peptide 500 μg/ml) was 640 +/− 80 CPM. For the same sequence, the “disulfide structure formed, reverse phase HPLC” value ([3]; Elman's reaction buffer pH 8.0 (1G2), 24 hour incubation at 37° C.) was “formed intra-chain disulfide bonds (ring structure) and not a higher lever structure”, the “integrity of the peptide by reverse phase HPLC” value ([3]; after 24 hours incubation at 37° C.) was “intact” and the “sulfhydryl state, reverse phase HPLC” value ([3]; sodium acetate buffer pH 5.2 (1G1), 24 hours incubation) was “predominately contained free sulfhydryl groups”.
